These results are taken from patent US12502383B2, “Pharmaceutical composition of cyclooxygenase-2 inhibitors” (THEMIS MEDICARE LIMITED, priority 2019, dated 2025).

The conditions of series [1]: cited from earlier work.
For series [2] the following is noted: in vivo; cited from earlier work.
A short description of series [3]: Solubilization of Etoricoxib in solubilizers. Type of series: physicochemical. The protocol: The ratio of active to solubilizers between 1:35 to 1:135.71 gives good solubilization of coxib. Satisfactory compositions can be produced wherein ration of active to solubilizer is between 1:35 to 1:58.33. Etoricoxib 1.4 mg ie 0.14% w/v can be solubilized in Twin 80, 8% w/v and Transcutol 3% w/v. It can also be solubilized in Ethanol and Tween 8% w/v each and Transcutol 3% w/v. One can consider it as 3 solubilizers or 2 solubilizers and one solvent.

For series [4] the following is noted: after oral and intravenous administration; cited from earlier work.
The conditions of series [5]: cited from earlier work. This is another data set of the same source.
In another series the test system is mouse. As to conditions: cited from earlier work.
The subject of the next series is Dog. The note with it: intravenous: Dog; cited from earlier work.
The test system of another series is rabbit. As to conditions: intravenous: rabbit; cited from earlier work.

Where two headings read alike, the source gives them in different places.

Regarding `Cc1ccc(-c2cc(C(F)(F)F)nn2-c2ccc(S(N)(=O)=O)cc2)cc1` [Celecoxib, 4-[5-(4-methylphenyl)-3-(trifluoromethyl)pyrazol-1-yl]benzenesulfonamide], in series [1], the “Solubility in anhydrous ethanol” value is given as “freely soluble to soluble”, the “Solubility in methylene chloride” value is listed as “soluble”, the Solubility in water result was “practically insoluble” and the “solubility in DMF” value was “approximately 25 mg/ml”. Also, in series [1], the “solubility in DMSO” value was “approximately 16.6 mg/ml” and the solubility in ethanol entry is listed as “approximately 25 mg/ml”. In addition, in series [2], the drug eliminated unchanged is given as less than 3%.

As to `Cc1ccc(-c2ncc(Cl)cc2-c2ccc(S(C)(=O)=O)cc2)cn1` [Etoricoxib], the Etoricoxib solubilized entry in series [3] (in Ethanol and Tween 8% w/v each and Transcutol 3% w/v) is on record as “solubilized”. Besides, in series [3] (in Twin 80, 8% w/v and Transcutol 3% w/v), the Etoricoxib solubilized was 1.4 mg. In series [1], the “Solubility in 2-propanol” value is on record as “sparingly soluble”; the “Solubility in isopropyl acetate, ethanol and toluene” value is “soluble”; the “Solubility in methanol, tetrahydrofuran, dimethyl sulfoxide, methyl ethyl ketone, dimethyl formamide, and chloroform” value is “freely soluble”; the Solubility in water entry is given as “practically insoluble”. Besides, the Bioavailability in series [4] is listed as 100%. Moreover, the protein binding entry in series [5] is “about 92%”.

With `CCOCCOCCO` [Transcutol, Diethylene Glycol Monoethyl Ether], the LD50 with mouse (intravenous: mouse) was 4300 µL/kg; with mouse (subcutaneous: mouse), 5500 µL/kg; in the series on Dog it was 3 mL/kg; with rabbit, 2500 µL/kg.
